Reference: US10098352B2, “Honeybee repellents and uses thereof” (Inscent, Inc., priority 2011, dated 2018)

Assays:
[1] = system: Apis mellifera Carniolan foraging worker honeybees; experiment: Choice test in free-flight box apparatus; assay type: in vivo; conditions: for Repellence Score: percent food-weight change vs corresponding dishes in preceding test; for Effectiveness at 10-fold lower concentration: 0.05% compared with 0.5%
Procedure: To determine whether living honeybees will choice to move towards a source of a candidate compound, these compounds were assayed using a choice test in a free-flight box apparatus.
All tests were done in a free-flight box apparatus. The apparatus comprises a 244 cm long×46 cm deep×30 cm high clear plastic box including two equally-sized independent testing chambers, each with 10 cm diameter air inlets that admit filtered room air, separated by a smaller central chamber with a screened air outlet to each testing chamber. Air can be pulled through the sealed box via a 10 cm diameter duct from the air outlet using an AQE Fume Fighter 500 fume extractor (BPA Air Quality Solutions, LLC, Charleston, S.C.), which removes the test odors using activated charcoal and HEPA filters. The box is housed in an environmentally controlled room with overhead illumination timed to correspond to the current ambient light cycle including 2 additional sets of lights timed to approximate crepuscular lighting conditions. The bottom of the apparatus was lined with clean absorbent paper marked with a 4×9 grid pattern, forming 12 cm×12 cm squares with marked coordinates.
Apis mellifera Carniolan foraging worker honeybees were obtained from a local apiary (typically 60 bees per shipment). Thirty honeybees were put into each testing chamber and were allowed to acclimate for 24 hours with food and water freely available.
At the beginning of each test day all food was removed from the test chamber, but water was continually available throughout all tests. For each test, approximately 0.3 g of organic, raw orange blossom honey was added to each clean small plastic weigh boat (Cole-Palmer). The honey boats were placed in small plastic culture dishes, which were distributed in the marked squares in the chambers. The positions of the dishes on the grid for a set of trials was chosen to avoid the bees' preferred resting area so that they had to find the food actively, but the same dish positions were maintained for a given set of trials. […] The honey in each boat was weighed on an analytical balance before and after the test, with the screened sample as a control for evaporative loss. The fume extractor was left off during the experimental trails, and was turned on to clear the air after the test dishes were covered and removed from the chamber at the end of each trial.
Based on the observation that bees tend to return to dishes in the same position where they have fed before, each set of trials with each group of bees began with “Pattern Identification” tests to see which dishes lose the most weight, reflecting the most feeding. Once bees were consuming an acceptable amount in 10-15 min, typically in 1-2 trials, we began a set of test compound trials. The test compound was pipetted onto pieces of filter paper placed on the dish bottom below the boat containing a fresh, weighed honey sample so that the test compound was inaccessible to the bees. We used 2 μL of a candidate compound at a concentration of 0.05-0.5%, in Triton X-100 or paraffin oil, on each of four pieces of filter paper per dish. The test-solution dishes were set at the same positions as the one or two dishes favored in the preceding Pattern Identification trial. To eliminate interference from the solvent, the other dishes without the test substance contained the same volume of the appropriate solvent on filter papers as the test solution dishes. The bees were allowed to feed for 10-15 minutes. Bee movements were recorded by a small, wide-angle digital video camcorder (HD Hero 960; GoPro, Halfmoon Bay, Calif.) placed on a tripod in front of the test chamber. The bees were given a brief rest while the honey was weighed and a second test was begun with fresh dishes, except that the test compound-containing dish or dishes were placed at whichever positions were most visited in the preceding test. […] The bees were then rested for 1-3 hours and a subsequent set of trials begun with another Pattern Identification. […]

OBP2 = experiment: Fluorescent-quench ligand-protein-binding assay (OBP2 binding screen); design: species or system Apis mellifera
Text: To identify a honeybee repellent disclosed herein, candidate compounds were screened based upon the fact that 2-heptanone is an established repellent of bees. 2-heptanone is thought to mediate its behavioral response through binding to a specific odorant-binding protein called OBP2. Therefore compounds that bind OBP2 have the potential to act as odor “mimics” of 2-heptanone. By utilizing a fluorescent-quench, ligand-protein-binding assay, 30,000 compounds from the DIVERSET® library (ChemBridge Corp., San Diego, Calif.), a chemical library, were screened and over 150 candidate compounds were isolated that bind OBP2 (Table 1). Such assays are generally known in the art. See, e.g., Briand, et al., Ligand-Binding Properties and Structural Characterization of a Novel Rat Odorant-Binding Protein Variant, Eur. J. Biochem. 267(10): 3079-3089 (2000); Briand, et al., Ligand Binding and Physico-Chemical Properties of ASP2, A Recombinant Odorant-Binding Protein From Honeybee (Apis mellifera L.), Eur. J. Biochem. 268(3): 752-760 (2001); Briand, et al., Characterization of a Chemosensory Protein (ASP3c) from Honeybee (Apis mellifera L.) as a Brood Pheromone Carrier, Eur. J. Biochem. 269(18): 4586-4596 (2002), each of which is hereby incorporated by reference in its entirety.

[2] = system: Apis mellifera Carniolan foraging worker honeybees; experiment: Proboscis extension response (PER) assay in bees conditioned to 2-heptanone; assay type: in vivo; conditions: for 2-heptanone positive bees testing positive to compound: final compound concentration 0.5% (TRITON X-100/water), 4 s exposure, only bees PER-positive to 2-heptanone and negative to controls counted
Procedure: To determine whether a living honeybee can recognize a candidate compound, these compounds were tested using a proboscis extension response (PER) assay using classical conditioning approaches. Proboscis extension response conditioning is a case of appetitive learning, in which bees learn to associate odor stimuli with sucrose reward in the laboratory. In this case, bees were conditioned to produce a PER to 2-heptanone as the conditioned stimulus and a sugar reward as the unconditioned stimulus. These trained bees were then exposed to an odor pulse of a candidate compound to test whether a candidate compound would also produce a PER. If the candidate compound “mimics” 2-heptanone then the honeybee will extend its proboscis.
For conditioning procedures, Apis mellifera Carniolan foraging worker honeybees were obtained from a local apiary (typically 60 bees per shipment). The honeybees were held overnight in insect cages with food and water freely available, in an environmentally controlled room on a light cycle similar to the ambient cycle at the time of the assay.
For conditioning procedures, all tests were done in an odorant delivery apparatus set inside a fume hood. The apparatus comprised a set of open-ended, horizontal, 3 cm diameter by 10 cm long plastic tubes. Each tube was designed where a honeybee could be positioned at the distal end of a tube, with the opening at the other end of the tube located proximal to an inlet of the fume hood. To deliver an odorant, room air was pumped by a diaphragm pump through a particle filter via 0.25 inch plastic tubing at approximately 0.7 m/sec. The air flow passes into the headspace above an odorant (0.5% [v/v]2-heptanone dissolved in odorless light paraffin oil) contained in a 100 mL bottle. The headspace air then passes through another plastic tube to a manifold of 4-way valves, each of which was attached near the proximal end of a plastic tube containing a bee. Each bee was exposed separately for a desired time period to the odorant by opening and closing the appropriate valve. When each valve was closed, the odor was flushed away immediately by the continuous fume hood air stream.
To train a honeybee to respond to a conditioned and unconditioned stimuli, bees were placed, without anesthesia, in individual 1.5 mL micro-centrifuge holding tubes and held overnight without access to food or water. The holding tubes containing the starved bees were placed in racks in groups of eight. One rack at a time was placed behind the odorant delivery apparatus so that each bee's head is centered at the distal end of a horizontal plastic tube. Each bee was exposed to the 2-heptanone odorant alone for four seconds, and then while being fed an 80% sucrose solution for and additional three seconds. The sucrose solution was delivered on a piece of saturated filter paper held in forceps. […] Positive and negative responses were recorded. A positive PER was scored when a bee extended its proboscis before the sucrose appeared. In a typical trial, 48 individual bees were subjected to conditioning. Six rounds of training were done before testing began, and typically a majority of the bees were successfully conditioned by the second or third round of training.
After conditioning, honeybees were tested with the candidate compounds the same day or on the following day or, most commonly, both. When held overnight, bees were fed with sucrose and kept in their holding tubes. When tested the day after training, bees were given one or more rounds of conditioning with 2-heptatone to refresh their memories. Candidate compounds stocks were made at 5% (w/v) in polyoxyethylene octyl phenyl ether (TRITON® X-100), a non-ionic detergent/surfactant, and stored at 4° C. This detergent is similar to substances used as carriers for a variety of commercial pest-control agents, can act as a solvent for both hydrophilic and hydrophobic substances, and is itself nearly odorless. […]

[3] = amount 0.5%, negative = increase in food consumption

Row | SMILES | OBP2 binding characteristic of compound (OBP2) | 2-heptanone positive bees testing positive to compound [2] | Repellence Score [1, 3] | also measured
1 | COc1ccc(CN2CCN(Cc3ccccc3)CC2)c(C)c1C [compound 7, 1-benzyl-4-(4-methoxy-2,3-dimethylbenzyl)piperazine] | Moderate (Moderate, indicates that 50% or less of the compound bound to OBP2.) | 39.0% | – | Repellence Score ([1]; amount 0.1%): 62.0%
2 | Cc1cc(C)c2c(N)c(C(=O)c3ccc(Cl)cc3)sc2n1 [compound 8, (3-amino-4,6-dimethylthieno[2,3-b]pyridin-2-yl)(4-chlorophenyl)methanone] | Moderate (Moderate, indicates that 50% or less of the compound bound to OBP2.) | 14.4% | −10.7% | Repellent or attractant effect in choice test (in words) ([1]; reduction of feeding at dishes most visited in preceding test): slightly attractive
3 | O=[N+]([O-])c1ccc(C=Cc2ccc(O)cc2)cc1 [compound 2, 4-[2-(4-nitrophenyl)vinyl]phenol] | Moderate (Moderate, indicates that 50% or less of the compound bound to OBP2.) | 31.5% | 37.6% | Effectiveness at 10-fold lower concentration [1]: significantly more effective; Repellence Score ([1]; amount 0.05%): 57.7%
4 | O=[N+]([O-])c1cc2c(cc1CN1CCN(c3ccccc3)CC1)OCO2 [compound 26] | – | 14.8% | 58.6% | Effectiveness at 10-fold lower concentration [1]: significantly more effective; Repellence Score ([1]; amount 0.05%): 60.0%
5 | CC(=O)c1cc(Cl)ccc1OC(=O)c1ccc(C)cc1 [compound 40, 2-acetyl-4-chlorophenyl 4-methylbenzoate] | Moderate (Moderate, indicates that 50% or less of the compound bound to OBP2.) | 34.3% | 54.6% | % Positive in PER ([2]; PER score as repeated in Table 3): 30.5%
6 | COc1ccc(C(=O)C=Cc2cn(C)c3ccccc23)cc1 [compound 50, 1-(4-methoxyphenyl)-3-(1-methyl-1H-indol-3-yl)-2-propen-1-one] | – | 22.2% | 55.7% | –
7 | COC(=O)C1=C(C(=O)OC)SC(=C2C(=S)C(C)(C)Nc3cc(C)ccc32)S1 [compound 19] | Strong (Strong, indicates that 51% or more of the compound bound to OBP2.) | 2.8% | – | –
8 | CCOC(=O)C1=C(C)NC(C)=C(C(=O)OC)C1c1ccc(Br)cc1 (stereo not drawn) [compound 41] | Moderate (Moderate, indicates that 50% or less of the compound bound to OBP2.) | 1.4% | – | –
9 | COc1cc(C=NO)ccc1Oc1ccc([N+](=O)[O-])cc1 [compound 3, 3-methoxy-4-(4-nitrophenoxy)benzaldehyde oxime] | – | 14.5% | 49.8% | –
10 | O=[N+]([O-])c1ccc(N2CCOCC2)cc1OCCOc1ccccc1 [compound 14] | Moderate (Moderate, indicates that 50% or less of the compound bound to OBP2.) | 3.9% | – | –
11 | Cc1ccc2c(c1Br)C(=NNC(=O)C1CC13CCC3)C(=O)N2 (stereo not drawn) [compound 55] | Moderate (Moderate, indicates that 50% or less of the compound bound to OBP2.) | 13.6% | – | –
12 | COc1cccc(C(=O)Oc2ccc3c(c2)C(C)=CC(C)(C)N3)c1 [compound 37] | Moderate (Moderate, indicates that 50% or less of the compound bound to OBP2.) | 14.4% | – | –
13 | O=c1[nH]c2ccccc2nc1-c1ccccc1NCc1ccc(F)cc1 [compound 18] | Strong (Strong, indicates that 51% or more of the compound bound to OBP2.) | 4.1% | – | –
14 | Cc1cc(O)c(C2=Nc3ccccc3SC(c3ccc(O)cc3)C2)c(=O)o1 (stereo not drawn) [compound 35] | Moderate (Moderate, indicates that 50% or less of the compound bound to OBP2.) | 9.0% | – | –
15 | CC1=CC(C)(C)N(C(=O)c2ccc(Br)cc2)c2ccccc21 [compound 11] | Moderate (Moderate, indicates that 50% or less of the compound bound to OBP2.) | 4.8% | – | –
16 | O=C(Nc1ccccc1)Nc1ccccc1C#Cc1ccccc1 [compound 57] | Moderate (Moderate, indicates that 50% or less of the compound bound to OBP2.) | 16.7% | – | –
